This note sets out measurements from ChEMBL document CHEMBL1201862, “PubChem BioAssay data set” (2004).

The structures appear in SMILES notation.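 Five concentrations, 48 hours, 96-well plates. The concentration for 50% growth inhibition is given as GI50.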 Active and inactive are the calls of the source. No stated cut-off is given here; in the data, active = GI50 up to about 1.1 µM and inactive = higher.

Among the test systems are Hs-578T; DLD-1; SNB-78; KM-20L2; HOP-18; DMS-273; XF498; DMS-114.
Holding throughout (test): NCI-60 cell line screen, 48 h

On to `CC(=O)OC1CCC2(C)C(=CCC3C2CCC2(C)C3CC3OC4(CCC(C)CN4)C(C)C32)C1` (centres undefined), for which the GI50 in the experiment with Hs-578T was > 100 µM (inactive).

Regarding `COc1ccc2cc(C(=O)CCC(=O)O)ccc2c1`, the GI50 in the experiment with Hs-578T is > 100 µM (inactive).

As to `O=C(O)/C(Cc1c[nH]nn1)=N\O`, in the experiment with Hs-578T, the GI50 was > 100 µM (inactive).

For `CC(C)(C)c1cc(C2COC(=O)COCCOCC(=O)OCCOCCO2)cc(C(C)(C)C)c1O` (centres undefined), in the experiment on Hs-578T, the GI50 was 27.7 µM (inactive).

With `Cc1ccc(S(=O)(=O)NC(=O)NC2=NC(C)(C)N(c3ccc(Cl)c(Cl)c3)C(N)=N2)cc1`, the GI50 with Hs-578T was 47.8 µM (inactive).

For the molecule `CN(CCCNC(=O)c1cn(C)c2c1ccc1ccccc12)CCCNC(=O)c1cn(C)c2c1ccc1ccccc12`, the GI50 in the experiment on Hs-578T was 1.44 µM (inactive).

Consider `CC(C)C(=O)[C@@]1(C)SC[C@H]2CCN=C21`, for which the GI50 in the experiment on Hs-578T was > 100 µM (inactive).

Turning to `[N-]=[N+]=C1C(=O)c2ccccc2-c2ccccc21`, the GI50 in the experiment on Hs-578T was 33 µM (inactive).

With `ClCCN1CCOC1=C1C=CC=C1`, the GI50 with Hs-578T is > 100 µM (inactive).

As for `CCOC(=O)CC1=N/C(=N/C(=N)N[N+](=O)[O-])SC1`, the GI50 in the experiment on DLD-1, in the experiment on SNB-78, in the experiment on KM-20L2, in the experiment with HOP-18 and in the experiment with DMS-273 was > 100 µM (inactive) each time.

Regarding `COc1ccc2c(c1)c(=O)c1c(NCCN(C)C)ccc3c(=O)n(CCN(C)C)c(=O)n2c31`, the GI50 in the experiment with Hs-578T is 0.178 µM (active).

For the molecule `O=C(c1ccccc1)c1ccc(C(c2c(O)c3ccccc3oc2=O)c2c(O)c3ccccc3oc2=O)cc1`, in the experiment with Hs-578T, the GI50 is 24.7 µM (inactive).

As to `Fc1ccc2nc3n(c2c1)C(c1c(Cl)cccc1Cl)SC3` (centres undefined), the GI50 in the experiment with Hs-578T is > 100 µM (inactive).

Take `Cc1ccc(C(=O)C(C2=Nc3nnc(N)n3C2=O)C2=Nc3nnc(N)n3C2=O)cc1`: the GI50 in the experiment with DLD-1, in the experiment with SNB-78, in the experiment on KM-20L2, in the experiment on XF498, with DMS-114 and in the experiment with DMS-273 was > 100 µM (inactive) in each case.

Regarding `CC1SC2=NC3=C(c4ccccc4C3=O)C(c3ccc(Br)cc3)N2C1=O` (centres undefined), the GI50 was 76 µM (inactive) in the experiment on DLD-1; > 100 µM (inactive) in the experiment on KM-20L2; 43.8 µM (inactive) in the experiment on XF498; 31.2 µM (inactive) in the experiment with DMS-114; > 100 µM (inactive) with DMS-273.

For the molecule `COc1ccc2c(c1)C(=O)c1ccccc1C2`, the GI50 in the experiment with Hs-578T is 44.4 µM (inactive).

In the case of `COC(=O)/C=C1/OC(c2ccc(C)cc2)=C(Cl)C1=O`, in the experiment with Hs-578T, the GI50 was 22.9 µM (inactive).

Regarding `CC(C(=O)OCc1ccccc1)(c1ccco1)N1C(=O)OC(c2ccccc2)C1c1ccccc1` (centres undefined), the GI50 with Hs-578T is > 100 µM (inactive).

Consider `CCc1cccc(C)c1NC(=O)C(=O)Cc1nc2ccccc2o1`, for which the GI50 with DLD-1, in the experiment with SNB-78, in the experiment with KM-20L2, in the experiment with HOP-18, with XF498 and with DMS-114 was > 100 µM (inactive) each time.

Take `O=C1C2C(C(=O)N1O)N(Cc1ccccc1)C(=O)N2Cc1ccccc1` (centres undefined): the GI50 with DLD-1, in the experiment with SNB-78, with KM-20L2, in the experiment with XF498 and in the experiment with DMS-114 was > 100 µM (inactive) each time.

Turning to `COC(=O)C1CC23C=CCN4CC(C2C)C2(c5ccccc5NC12)C43` (centres undefined), the GI50 in the experiment with Hs-578T was > 100 µM (inactive).

Consider `CC(=O)Nc1ccc(S(=O)(=O)/N=C2\C=CC(=O)c3ccccc32)cc1`, for which, in the experiment on Hs-578T, the GI50 was 7.64 µM (inactive).

`OC12CCCCCC1(N1CCOCC1)c1ccccc12` (centres undefined): the GI50 with SNB-78, with KM-20L2, in the experiment on HOP-18, in the experiment with DMS-114 and with DMS-273 was > 100 µM (inactive) each time.

Turning to `O=C(Cc1ccccc1)NN1C(=O)C(Cl)C1c1cc(Br)cc(Br)c1O` (centres undefined), the GI50 in the experiment with DLD-1 was 8.81 µM (inactive); in the experiment on SNB-78 it was 24.4 µM (inactive); in the experiment on KM-20L2, 24.7 µM (inactive); in the experiment with HOP-18, 7.83 µM (inactive); with XF498, 19.8 µM (inactive); with DMS-114, 3.97 µM (inactive). Also, the GI50 with DMS-273 was 12.5 µM (inactive).

For `CCOC(CN(C)C(=S)Nc1cccc2ccccc12)OCC`, the GI50 in the experiment on Hs-578T was > 10 µM (inactive).

With `C#CC1(O)c2ccccc2C(=O)c2ccccc21`, the GI50 in the experiment with SNB-78 is 35.9 µM (inactive); in the experiment with KM-20L2, > 100 µM (inactive); in the experiment with HOP-18 it was > 100 µM (inactive); with XF498, 84.7 µM (inactive); with DMS-273 it was > 100 µM (inactive).

Take `Nc1nc2ncc(SCc3ccc(C(=O)NC(CCC(=O)O)C(=O)O)cc3)cc2c(=O)[nH]1` (centres undefined): the GI50 in the experiment with Hs-578T was > 100 µM (inactive).

With `CC(C)=CCC\C(C)=C/C=C/C(C)=C\C=C\C(C)=C/C=C/C=C(C)\C=C\C=C(C)/C=C/C=C(/C)CCC=C(C)C`, the GI50 in the experiment on Hs-578T was > 100 µM (inactive).

With `C/C(CC(=O)Nc1cccc(Cl)c1C)=N\NC(=O)c1ccncc1`, the GI50 with DLD-1, in the experiment on SNB-78, in the experiment on KM-20L2, in the experiment with XF498, in the experiment with DMS-114 and in the experiment with DMS-273 was > 100 µM (inactive) each time.

`O=C1CN(c2cccc(C(F)(F)F)c2)C(=O)CN1CCN1CC(=O)N(c2cccc(C(F)(F)F)c2)CC1=O`: in the experiment on Hs-578T, the GI50 was > 100 µM (inactive).

Regarding `CCOC(=O)c1ccc(Nc2cnc3cc(C(F)(F)F)ccc3n2)cc1`, the GI50 in the experiment with Hs-578T was > 100 µM (inactive).

In the case of `O=C(OCc1ccccc1)N1CCN(C(=O)OCc2ccccc2)CCN(C(=O)OCc2ccccc2)CCN(C(=O)OCc2ccccc2)CCN(C(=O)OCc2ccccc2)CC1`, the GI50 with Hs-578T is 39.3 µM (inactive).

As for `NC(=O)N1N=C2c3ccccc3OC[C@H]2[C@@H]1c1ccccc1`, the GI50 with DLD-1 was 6.5 µM (inactive); with SNB-78 it was > 38.5 µM (inactive); with KM-20L2, 23.4 µM (inactive); in the experiment with HOP-18, 18.7 µM (inactive); in the experiment on XF498, 10.7 µM (inactive); in the experiment on DMS-114, 7.53 µM (inactive). In the experiment with DMS-273, the GI50 is 9.1 µM (inactive).

Turning to `CC1(C)C2CCC1(C)C(NC(=O)COCCOCC(N)=O)C2` (centres undefined), in the experiment with Hs-578T, the GI50 was > 100 µM (inactive).

Regarding `OC1/C(=C/c2ccccc2)CNC/C1=C\c1ccccc1` (centres undefined), the GI50 with DLD-1, with SNB-78, in the experiment with KM-20L2, with HOP-18, with DMS-114 and in the experiment on DMS-273 was > 100 µM (inactive) each time.

Take `Cn1cc(-c2ccc(CCOC3CCCCO3)cc2)c2c(C#N)cccc21` (centres undefined): the GI50 with Hs-578T is > 100 µM (inactive).

In the case of `O=[N+]([O-])c1ccc(-n2nnc(C3=NCCCN3)c2-c2ccc(Cl)cc2)cc1`, the GI50 in the experiment on DLD-1, with SNB-78, in the experiment with KM-20L2, in the experiment with HOP-18, in the experiment on XF498 and in the experiment with DMS-273 was > 100 µM (inactive) in each case.

Take `N#Cc1c(Cl)c2cccnc2n2c1nc1ccccc12`: the GI50 in the experiment with Hs-578T was 2.79 µM (inactive).

As for `Cc1ccc(S(=O)(=O)NC(=O)NCC(N)=O)cc1`, the GI50 in the experiment with Hs-578T is > 100 µM (inactive).

On to `O=Cc1ccc2c(c1-c1c(C=O)ccc3c1OCO3)OCO2`, for which the GI50 in the experiment with DLD-1, in the experiment on SNB-78, in the experiment on KM-20L2, in the experiment on HOP-18, with DMS-114 and with DMS-273 was > 100 µM (inactive) each time.

Regarding `Cc1ccc(S(=O)(=O)N(CC(O)COc2ccccc2)c2c(F)c(F)cc(F)c2F)cc1` (centres undefined), in the experiment on Hs-578T, the GI50 was 24.3 µM (inactive).

Turning to `CC(/C=C/C(O)=C1/C(=O)CNC1=O)=C\[C@@H](C)[C@H]1O[C@@]2(C)O[C@H](C(=O)[C@@H]3O[C@@]32C)[C@@H]1C`, in the experiment on Hs-578T, the GI50 is 24.9 µM (inactive).

For `CCOC(=O)c1sc2nc(SC)nc(Nc3ccc(OC)c(OC)c3)c2c1N`, the GI50 with Hs-578T is 17.7 µM (inactive).

Regarding `COC(=O)c1nc(Cl)nc(Cl)c1Cl`, the GI50 in the experiment with Hs-578T was 21.8 µM (inactive).

Regarding `COc1ccc2c(c1)CCc1c(-c3n[nH]c4c3CCc3cc(OC)ccc3-4)n[nH]c1-2`, the GI50 was 54.5 µM (inactive) in the experiment on DLD-1; 44.1 µM (inactive) in the experiment on SNB-78; 47.5 µM (inactive) in the experiment with KM-20L2; 25.8 µM (inactive) in the experiment with HOP-18; 32.8 µM (inactive) with XF498; 55.5 µM (inactive) with DMS-114. Also, the GI50 with DMS-273 was 17.4 µM (inactive).

Turning to `CCOC(=O)C1(C(N)=O)C(=O)c2ccncc2C1=O` (centres undefined), the GI50 in the experiment on Hs-578T is > 100 µM (inactive).

As to `O=C(Sc1sc(=S)sc1SC(=O)c1ccccc1)c1ccccc1`, the GI50 was > 100 µM (inactive) with SNB-78; 48.2 µM (inactive) in the experiment on KM-20L2; > 100 µM (inactive) with HOP-18; 55.2 µM (inactive) in the experiment with XF498; > 100 µM (inactive) with DMS-114; 53 µM (inactive) in the experiment on DMS-273.

With `C#CCC(N)(CO)C(=O)O` (centres undefined), the GI50 in the experiment on DLD-1, in the experiment on SNB-78, with HOP-18, in the experiment on XF498, in the experiment with DMS-114 and in the experiment with DMS-273 was > 100 µM (inactive) each time.

Regarding `O=C(c1ccccc1)N1C(=S)NC(=N/c2ccccc2)/C1=N\c1ccccc1`, the GI50 with Hs-578T is > 100 µM (inactive).

For the molecule `CC(C)NC(=O)OCc1c2c(n(C)c1COC(=O)NC(C)C)-c1cc(Cl)c(Cl)cc1CC2`, the GI50 with Hs-578T is 32.1 µM (inactive).

On to `Cc1c(CCCl)c(N=[N+]=[N-])n2c(nc3ccccc32)c1C#N`, for which the GI50 with Hs-578T was 0.986 µM (active).

`COCC(OC)C(CC=C(C#N)C#N)OC` (centres undefined): the GI50 in the experiment with SNB-78, in the experiment on KM-20L2, in the experiment on XF498, in the experiment on DMS-114 and in the experiment on DMS-273 was > 100 µM (inactive) each time.

For the molecule `O=S(=O)(O)c1ccc(/N=N\c2c(O)ccc3cc(Br)ccc23)cc1`, in the experiment with Hs-578T, the GI50 was > 100 µM (inactive).

Turning to `N#Cc1ccc(/C=[N+](/C=c2ccc(=C=[N-])cc2)N(CCO)C2=NCCN2)cc1`, the GI50 with Hs-578T was > 100 µM (inactive).

`NC(=O)c1ccc2c(c1)S(=O)(=O)c1ccccc1C2=O`: the GI50 with Hs-578T was 58.6 µM (inactive).

In the case of `O=C(c1cccs1)N1CCCN(C(=O)c2cccs2)C1=S`, the GI50 with Hs-578T is > 100 µM (inactive).

With `CNc1nc(OC)c2c(n1)n(C)c[n+]2C` [HETEROMINE B], the GI50 with Hs-578T was 31.6 µM (inactive).
